Source: ChEMBL document CHEMBL1201862, “PubChem BioAssay data set” (2004)
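Method: 48-hour compound exposure of cells in 96-well plates, five concentrations, linear interpolation of endpoints. GI50 is the concentration that inhibits growth by half.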 Calls of active or inactive are those of the source. Rule as the data show it: active = GI50 up to about 1.1 µM and inactive = higher.

Tests used:
Test in all cases: NCI anticancer screen, dose series, 48 h
[1] = system: SF-295
[2] = system: K562
[3] = system: HCT-116
[4] = system: SK-MEL-2
[5] = system: SNB-19
[6] = system: SN12C
[7] = system: NCI-H23
[8] = system: SK-MEL-28
[9] = system: UO-31
[10] = system: MOLT-4
[11] = system: OVCAR-8
[12] = system: UACC-62
[13] = system: HL-60
[14] = system: HCT-15
[15] = system: COLO 205
[16] = system: KM12
[17] = system: SF-268
[18] = system: OVCAR-3
[19] = system: SK-MEL-5
[20] = system: SF-539

SMILES | GI50 [1] | GI50 [2] | GI50 [3] | GI50 [4] | GI50 [5] | GI50 [6] | GI50 [7] | GI50 [8] | GI50 [9] | GI50 [10] | GI50 [11] | GI50 [12] | GI50 [13] | GI50 [14] [µM] | GI50 [15] | GI50 [16] | GI50 [17] | GI50 [18] | GI50 [19] | GI50 [20]
CCCCCCCCCCCCCCCCOCC(COP(=O)([O-])OCC[N+](C)(C)C)OCCCCCCCCCCCCCCCC (stereo not given) | > 100 µM (inactive) | > 100 µM (inactive) | > 100 µM (inactive) | > 100 µM (inactive) | > 100 µM (inactive) | > 100 µM (inactive) | > 100 µM (inactive) | > 100 µM (inactive) | > 100 µM (inactive) | > 100 µM (inactive) | > 100 µM (inactive) | > 100 µM (inactive) | > 100 µM (inactive) | > 100 | > 100 µM (inactive) | > 100 µM (inactive) | > 100 µM (inactive) | > 100 µM (inactive) | > 100 µM (inactive) | > 100 µM (inactive)
CC(=O)Nc1ccc(C2=N/C(=C\c3ccc(Cl)c(Cl)c3)C(=O)O2)cc1 | > 100 µM (inactive) | > 100 µM (inactive) | > 100 µM (inactive) | > 100 µM (inactive) | > 100 µM (inactive) | > 100 µM (inactive) | > 100 µM (inactive) | > 100 µM (inactive) | > 100 µM (inactive) | > 100 µM (inactive) | > 100 µM (inactive) | > 100 µM (inactive) | > 100 µM (inactive) | > 100 | > 100 µM (inactive) | > 100 µM (inactive) | > 100 µM (inactive) | > 100 µM (inactive) | > 100 µM (inactive) | > 100 µM (inactive)
NC(CCOCCP(=O)(O)CCC1C=CC=CC1)C(=O)O (stereo not given) | > 100 µM (inactive) | > 100 µM (inactive) | > 100 µM (inactive) | > 100 µM (inactive) | > 100 µM (inactive) | > 100 µM (inactive) | > 100 µM (inactive) | > 100 µM (inactive) | > 100 µM (inactive) | > 100 µM (inactive) | > 100 µM (inactive) | 43.8 µM (inactive) | > 100 µM (inactive) | > 100 | > 100 µM (inactive) | > 100 µM (inactive) | > 100 µM (inactive) | > 100 µM (inactive) | > 100 µM (inactive) | > 100 µM (inactive)
Nc1nc(N)c2c(CCc3ccc(C(=O)N[C@@H](CCC(=O)O)C(=O)O)cc3)ccnc2n1 | 0.148 µM (active) | < 0.01 µM (active) | < 0.01 µM (active) | > 28.8 µM (inactive) | 0.912 µM (active) | < 0.0297 µM (active) | < 0.0308 µM (active) | > 88.9 µM (inactive) | 0.0164 µM (active) | < 0.05 µM (active) | < 0.01 µM (active) | < 0.0169 µM (active) | < 0.01 µM (active) | < 0.0232 | 1.27 µM (inactive) | < 0.0283 µM (active) | 0.0308 µM (active) | 0.0365 µM (active) | 0.0855 µM (active) | < 0.0145 µM (active)
CC(C)(CCCCC(C)(C)NC1=NCCO1)NC1=NCCO1 | > 10 µM (inactive) | > 10 µM (inactive) | > 10 µM (inactive) | > 10 µM (inactive) | > 10 µM (inactive) | > 10 µM (inactive) | > 10 µM (inactive) | > 10 µM (inactive) | > 10 µM (inactive) | > 10 µM (inactive) | > 10 µM (inactive) | > 10 µM (inactive) | > 10 µM (inactive) | > 10 | > 10 µM (inactive) | > 10 µM (inactive) | > 10 µM (inactive) | > 10 µM (inactive) | > 10 µM (inactive) | > 10 µM (inactive)
NC1C2C=CC(C2)C1C(=O)O (stereo not given) | > 100 µM (inactive) | > 100 µM (inactive) | > 100 µM (inactive) | > 100 µM (inactive) | > 100 µM (inactive) | > 100 µM (inactive) | > 100 µM (inactive) | > 100 µM (inactive) | > 100 µM (inactive) | > 100 µM (inactive) | > 100 µM (inactive) | > 100 µM (inactive) | > 100 µM (inactive) | > 100 | > 100 µM (inactive) | > 100 µM (inactive) | > 100 µM (inactive) | > 100 µM (inactive) | > 100 µM (inactive) | 9.08 µM (inactive)
COc1cc2c(cc1Oc1c(Oc3c(O)c(OC)cc4c3C(CC(C)C)N(C)CC4)c(OC)cc3c1C(CC(C)C)N(C)CC3)C(CC(C)C)N(C)CC2 (stereo not given) | 0.904 µM (active) | 1.02 µM (active) | 0.643 µM (active) | 0.867 µM (active) | 0.582 µM (active) | 0.577 µM (active) | 0.787 µM (active) | 0.897 µM (active) | 3.95 µM (inactive) | 1.03 µM (active) | 0.618 µM (active) | 0.573 µM (active) | 3.03 µM (inactive) | 1.81 | 0.351 µM (active) | 0.721 µM (active) | 1.51 µM (inactive) | 1.12 µM (inactive) | 0.375 µM (active) | 0.376 µM (active)
CCN(CC)c1c(C)c(C(=O)OC)nn1-c1ccccc1 | > 83.6 µM (inactive) | 36.9 µM (inactive) | 89.1 µM (inactive) | > 89.7 µM (inactive) | > 72.1 µM (inactive) | > 100 µM (inactive) | 33.6 µM (inactive) | > 100 µM (inactive) | 33 µM (inactive) | 43.1 µM (inactive) | > 100 µM (inactive) | > 100 µM (inactive) | 35.2 µM (inactive) | > 100 | > 100 µM (inactive) | > 85.3 µM (inactive) | 81.3 µM (inactive) | 60.5 µM (inactive) | 32.8 µM (inactive) | > 100 µM (inactive)
C=C1CC(OC)(C(O)C(=O)N[C@H]2OCO[C@H]3C2O[C@H](C[C@@H](CO)OC)C(C)(C)C3OC)O[C@H](C)[C@@H]1C (stereo not given in full) | < 0.00931 µM (active) | < 0.00931 µM (active) | < 0.00931 µM (active) | 0.0931 µM (active) | < 0.00931 µM (active) | < 0.00931 µM (active) | < 0.00931 µM (active) | < 0.00931 µM (active) | < 0.00931 µM (active) | 0.931 µM (active) | < 0.00931 µM (active) | < 0.00931 µM (active) | < 0.00931 µM (active) | < 0.00931 | < 0.00931 µM (active) | < 0.00931 µM (active) | < 0.00931 µM (active) | < 0.00931 µM (active) | < 0.00931 µM (active) | < 0.00931 µM (active)
O=C1C(=O)c2cc([N+](=O)[O-])ccc2-c2ccc([N+](=O)[O-])cc21 | 1.71 µM (inactive) | 0.395 µM (active) | 0.177 µM (active) | 2.02 µM (inactive) | 1.74 µM (inactive) | 0.927 µM (active) | 0.682 µM (active) | 1.99 µM (inactive) | 1.51 µM (inactive) | 0.288 µM (active) | 0.351 µM (active) | 0.466 µM (active) | 0.246 µM (active) | 0.785 | 3.01 µM (inactive) | 0.935 µM (active) | 0.484 µM (active) | 0.29 µM (active) | 1.92 µM (inactive) | 0.741 µM (active)
